# Legend:
# Assay in all cases: relative viability (nuclei count vs DMSO), 5 days (fraction); higher = more cells survive
# 201T = test system: 201T
# Summary of the method: (§1)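 Lung cancer cell lines in 1536-well plates got either a single drug or a fixed anchor-drug dose together with five library-drug doses (not always all listed) in √10 steps, by pin tool, on the day after seeding. Nuclei were counted after 5 days, and relative viability is the treated-to-vehicle ratio of nuclei counts. Values are medians of duplicate plates.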
# BEN = test system: BEN
# Summary of the method: as §1
# CAL-12T = test system: CAL-12T
# Summary of the method: as §1
# HCC-827 = test system: HCC-827
# Summary of the method: as §1
# LCLC-103H = test system: LCLC-103H
# Summary of the method: as §1
# LCLC-97TM1 = test system: LCLC-97TM1
# Summary of the method: as §1
# LXF-289 = test system: LXF-289
# Summary of the method: as §1
# NCI-H1395 = test system: NCI-H1395
# Summary of the method: as §1
# NCI-H1437 = test system: NCI-H1437
# Summary of the method: as §1
# NCI-H1650 = test system: NCI-H1650
# Summary of the method: as §1
# NCI-H1792 = test system: NCI-H1792
# Summary of the method: as §1
# NCI-H1793 = test system: NCI-H1793
# Summary of the method: as §1
# NCI-H1944 = test system: NCI-H1944
# Summary of the method: as §1
# NCI-H2087 = test system: NCI-H2087
# Summary of the method: as §1
# NCI-H2228 = test system: NCI-H2228
# Summary of the method: as §1
# NCI-H2405 = test system: NCI-H2405
# Summary of the method: as §1
# NCI-H3122 = test system: NCI-H3122
# Summary of the method: as §1
# NCI-H322M = test system: NCI-H322M
# Summary of the method: as §1
# NCI-H647 = test system: NCI-H647
# Summary of the method: as §1
# NCI-H727 = test system: NCI-H727
# Summary of the method: as §1
# RERF-LC-KJ = test system: RERF-LC-KJ
# Summary of the method: as §1
# SK-LU-1 = test system: SK-LU-1
# Summary of the method: as §1
compound,measurement,setting,value
Nc1ccn([C@@H]2O[C@H](CO)[C@@H](O)[C@@H]2O)c(=O)n1 [Cytarabine] + CS(=O)(=O)N1CCN(Cc2cc3nc(-c4cccc5[nH]ncc45)nc(N4CCOCC4)c3s2)CC1 [Pictilisib] (partner 1 µM),relative viability,201T; first compound 0.005 µM,0.655
same,relative viability,201T; first compound 0.01581 µM,0.707
same,relative viability,201T; first compound 0.05 µM,0.738
same,relative viability,201T; first compound 0.1581 µM,0.576
same,relative viability,201T; first compound 0.5 µM,0.416
same,relative viability,BEN; first compound 0.005 µM,0.571
same,relative viability,BEN; first compound 0.01581 µM,0.504
same,relative viability,BEN; first compound 0.05 µM,0.413
same,relative viability,BEN; first compound 0.1581 µM,0.279
same,relative viability,BEN; first compound 0.5 µM,0.195
same,relative viability,CAL-12T; first compound 0.005 µM,0.403
same,relative viability,CAL-12T; first compound 0.01581 µM,0.357
same,relative viability,CAL-12T; first compound 0.05 µM,0.31
same,relative viability,CAL-12T; first compound 0.1581 µM,0.326
same,relative viability,CAL-12T; first compound 0.5 µM,0.222
same,relative viability,HCC-827; first compound 0.005 µM,1.05
same,relative viability,HCC-827; first compound 0.01581 µM,0.876
same,relative viability,HCC-827; first compound 0.05 µM,0.683
same,relative viability,HCC-827; first compound 0.1581 µM,0.474
same,relative viability,HCC-827; first compound 0.5 µM,0.408
same,relative viability,LCLC-103H; first compound 0.005 µM,0.614
same,relative viability,LCLC-103H; first compound 0.01581 µM,0.624
same,relative viability,LCLC-103H; first compound 0.05 µM,0.565
same,relative viability,LCLC-103H; first compound 0.1581 µM,0.513
same,relative viability,LCLC-103H; first compound 0.5 µM,0.617
same,relative viability,LCLC-97TM1; first compound 0.005 µM,0.207
same,relative viability,LCLC-97TM1; first compound 0.01581 µM,0.177
same,relative viability,LCLC-97TM1; first compound 0.05 µM,0.0754
same,relative viability,LCLC-97TM1; first compound 0.1581 µM,0.124
same,relative viability,LCLC-97TM1; first compound 0.5 µM,0.108
same,relative viability,LXF-289; first compound 0.005 µM,0.716
same,relative viability,LXF-289; first compound 0.01581 µM,0.752
same,relative viability,LXF-289; first compound 0.05 µM,0.679
same,relative viability,LXF-289; first compound 0.1581 µM,0.288
same,relative viability,LXF-289; first compound 0.5 µM,0.304
same,relative viability,NCI-H1395; first compound 0.005 µM,0.616
same,relative viability,NCI-H1395; first compound 0.01581 µM,0.564
same,relative viability,NCI-H1395; first compound 0.05 µM,0.391
same,relative viability,NCI-H1395; first compound 0.1581 µM,0.365
same,relative viability,NCI-H1395; first compound 0.5 µM,0.316
same,relative viability,NCI-H1437; first compound 0.005 µM,0.381
same,relative viability,NCI-H1437; first compound 0.01581 µM,0.245
same,relative viability,NCI-H1437; first compound 0.05 µM,0.252
same,relative viability,NCI-H1437; first compound 0.1581 µM,0.112
same,relative viability,NCI-H1437; first compound 0.5 µM,0.11
same,relative viability,NCI-H1650; first compound 0.005 µM,0.442
same,relative viability,NCI-H1650; first compound 0.01581 µM,0.467
same,relative viability,NCI-H1650; first compound 0.05 µM,0.359
same,relative viability,NCI-H1650; first compound 0.1581 µM,0.205
same,relative viability,NCI-H1650; first compound 0.5 µM,0.181
same,relative viability,NCI-H1792; first compound 0.005 µM,0.314
same,relative viability,NCI-H1792; first compound 0.01581 µM,0.207
same,relative viability,NCI-H1792; first compound 0.05 µM,0.216
same,relative viability,NCI-H1792; first compound 0.1581 µM,0.174
same,relative viability,NCI-H1792; first compound 0.5 µM,0.188
same,relative viability,NCI-H1793; first compound 0.005 µM,0.312
same,relative viability,NCI-H1793; first compound 0.01581 µM,0.29
same,relative viability,NCI-H1793; first compound 0.05 µM,0.383
same,relative viability,NCI-H1793; first compound 0.1581 µM,0.307
same,relative viability,NCI-H1793; first compound 0.5 µM,0.194
same,relative viability,NCI-H1944; first compound 0.005 µM,0.29
same,relative viability,NCI-H1944; first compound 0.01581 µM,0.267
same,relative viability,NCI-H1944; first compound 0.05 µM,0.236
same,relative viability,NCI-H1944; first compound 0.1581 µM,0.201
same,relative viability,NCI-H1944; first compound 0.5 µM,0.189
same,relative viability,NCI-H2087; first compound 0.005 µM,0.804
same,relative viability,NCI-H2087; first compound 0.01581 µM,0.751
same,relative viability,NCI-H2087; first compound 0.05 µM,0.805
same,relative viability,NCI-H2087; first compound 0.1581 µM,0.461
same,relative viability,NCI-H2087; first compound 0.5 µM,0.355
same,relative viability,NCI-H2228; first compound 0.005 µM,0.29
same,relative viability,NCI-H2228; first compound 0.01581 µM,0.188
same,relative viability,NCI-H2228; first compound 0.05 µM,0.399
same,relative viability,NCI-H2228; first compound 0.1581 µM,0.109
same,relative viability,NCI-H2228; first compound 0.5 µM,0.146
same,relative viability,NCI-H2405; first compound 0.005 µM,0.398
same,relative viability,NCI-H2405; first compound 0.01581 µM,0.334
same,relative viability,NCI-H2405; first compound 0.05 µM,0.319
same,relative viability,NCI-H2405; first compound 0.1581 µM,0.301
same,relative viability,NCI-H2405; first compound 0.5 µM,0.229
same,relative viability,NCI-H3122; first compound 0.005 µM,0.629
same,relative viability,NCI-H3122; first compound 0.01581 µM,0.494
same,relative viability,NCI-H3122; first compound 0.05 µM,0.61
same,relative viability,NCI-H3122; first compound 0.1581 µM,0.329
same,relative viability,NCI-H3122; first compound 0.5 µM,0.204
same,relative viability,NCI-H322M; first compound 0.005 µM,0.443
same,relative viability,NCI-H322M; first compound 0.01581 µM,0.492
same,relative viability,NCI-H322M; first compound 0.05 µM,0.368
same,relative viability,NCI-H322M; first compound 0.1581 µM,0.279
same,relative viability,NCI-H322M; first compound 0.5 µM,0.308
same,relative viability,NCI-H647; first compound 0.005 µM,0.39
same,relative viability,NCI-H647; first compound 0.01581 µM,0.212
same,relative viability,NCI-H647; first compound 0.05 µM,0.159
same,relative viability,NCI-H647; first compound 0.1581 µM,0.0808
same,relative viability,NCI-H647; first compound 0.5 µM,0.0843
same,relative viability,NCI-H727; first compound 0.005 µM,0.45
same,relative viability,NCI-H727; first compound 0.01581 µM,0.237
same,relative viability,NCI-H727; first compound 0.05 µM,0.211
same,relative viability,NCI-H727; first compound 0.1581 µM,0.222
same,relative viability,NCI-H727; first compound 0.5 µM,0.203
same,relative viability,RERF-LC-KJ; first compound 0.005 µM,0.493
same,relative viability,RERF-LC-KJ; first compound 0.01581 µM,0.459
same,relative viability,RERF-LC-KJ; first compound 0.05 µM,0.487
same,relative viability,RERF-LC-KJ; first compound 0.1581 µM,0.428
same,relative viability,RERF-LC-KJ; first compound 0.5 µM,0.287
same,relative viability,SK-LU-1; first compound 0.005 µM,0.519
same,relative viability,SK-LU-1; first compound 0.01581 µM,0.515
same,relative viability,SK-LU-1; first compound 0.05 µM,0.333
same,relative viability,SK-LU-1; first compound 0.1581 µM,0.216
same,relative viability,SK-LU-1; first compound 0.5 µM,0.216

# From the supplement of paper PMC10307832
